Experimental data reported in US20240172750A1, “5-Fluoro-4-Imino-3-Methyl-1-Tosyl-3,4-Dihydropyrimidin-2(1H)-One for Controlling Plant Diseases” (Adama Makhteshim Ltd., priority 2021, published 2024).
Where two headings read alike, the source gives them in different places.

Experiments:
[1] = system: soybean seedlings cv RAS 04; details: in vivo
Procedure: (§1) Treated or untreated soybean seeds were allowed to dry under laminar flow for 24 h before sowing.
Plastic Box of 500 cc were filled with 250 ml extra fine (vermiculite up to 2 5 cm of the top 3 boxes per treatment. 50 ml of sterilized soybean seeds previously inoculated with Sclerotinia sclerotiorum (strain Sscl wt) grounded and mixed with XF vermiculite were spread over the 250 ml vermiculite. Same was done with the non-inoculated seeds serving as a reference for the germination test.
The inoculum was covered with 100 ml (1 cm) of XF vermiculite, and then 9 untreated or treated 9 soybean seeds were sown in each box. Seeds were covered with 150 ml (1.5 cm) of XF vermiculite. The substrate was moistened with 200 ml of tap water and then weekly once with tap water and once with a 0 5 g/l nutrients solution (Plant Prod, Ltd N P K 20 20 20 and micronutrients). The lid was punctured and then placed on each box for 5 days to maintain saturated humidity. Boxes were placed in a climatic chamber with a photoperiod of 16 h light/8 h darkness, 2424° C. day/1818° C. night and a relative humidity of 85.
Phytotoxicity assessments were carried out checking analyzing the following parameters: • a. Rate of emergence of soybean seedlings after 7 days post sowing dps. • b. General development (pictures) of the aerial part of the soybean plants after 3 weeks of incubation

[2] = system: soybean seedlings cv RAS 04; details: in vivo; remark: listed apart in the source
Procedure: Disinfected seed surface of the soybean cultivar RAS 04 from RAGT were treated with the laboratory seed dressing equipment called Bol Hégé with the following products: • ADM 00050 F 1 A (500 SC) at 0.002-0.005-0.01-0.02 and 0.05 L/100 Kg seeds (1-2.5-5-10-25 g ai/100 Kg seeds), without coating agent. • Vibrance duo (25+25 g ai/L of Fludioxonil and Sedaxane SC) at 0.2 L/100 Kg seeds, corresponding to 5+5 g ai/100 Kg seeds of Fludioxonil and Sedaxane • Santhal (465 g ai/L of Metalaxyl-M (Mefenoxam) EC) at 0.064 L/100 Kg seeds (3 g ai/100 Kg seeds of Metalaxyl-M=Mefenoxam) without coating agent • Sterile distilled water Untreated Control, without coating agent
as §1
Plastic Box of 500 cc were filled with 250 ml extra fine (vermiculite up to 2 5 cm of the top 3 boxes per treatment. 50 ml of sterilized soybean seeds previously inoculated with Rhizoctonia solani (strain RsolAG 2 2) grounded and mixed with XF vermiculite were spread over the 250 ml vermiculite. Same was done with the non-inoculated seeds serving as a reference for the germination test.
The inoculum was covered with 100 ml (1 cm) of XF vermiculite, and then 9 untreated or treated 9 soybean seeds were sown in each box. Seeds were covered with 150 ml (1.5 cm) of XF vermiculite. […]

## COCC(=O)N(c1c(C)cccc1C)[C@H](C)C(=O)OC [Metalaxyl-M]
[1]
  Seedling emergence rate (% of the total): 77.8 +/− 6.4a % of the total
[2]
  Seedling emergence rate (% of the total): 77.8 +/− 6.4a % of the total
